Tested on: KRAS PDC multicell spheroid viability
Assay: Anticancer human tumor 825966-067-R-J1-PDC patient-derived colon carcinoma cell line growth inhibition [KRAS2]
Conditions: for IC50: curve of first compound; for viability, T/C: stronger effect = lower value
Procedure, shortened: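 KRAS-mutant tumor cells were grown as spheroids with HUVEC endothelial cells and human MSCs as stroma. Targeted agents were tested alone and with KRAS pathway inhibitors. Doses started at or near clinical Cmax, or 10 microM, descending half-log.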

[1] = second compound 0.1 µM, first compound 0.00316 µM
[2] = second compound 0.1 µM, first compound 0.01 µM
[3] = second compound 0.1 µM, first compound 0.0316 µM
[4] = second compound 0.1 µM, first compound 0.1 µM
[5] = second compound 0.1 µM, first compound 0.316 µM
[6] = second compound 0.1 µM, first compound 1 µM
[7] = second compound 0.316 µM, first compound 0.00316 µM
[8] = second compound 0.316 µM, first compound 0.01 µM
[9] = second compound 0.316 µM, first compound 0.0316 µM
[10] = second compound 0.316 µM, first compound 0.1 µM
[11] = second compound 0.316 µM, first compound 0.316 µM
[12] = second compound 0.316 µM, first compound 1 µM
[13] = second compound 1 µM, first compound 0.00316 µM
[14] = second compound 1 µM, first compound 0.01 µM
[15] = second compound 1 µM, first compound 0.0316 µM
[16] = second compound 1 µM, first compound 0.1 µM
[17] = second compound 1 µM, first compound 0.316 µM
[18] = second compound 1 µM, first compound 1 µM
[19] = second compound 3.16 µM, first compound 0.00316 µM
[20] = second compound 3.16 µM, first compound 0.01 µM
[21] = second compound 3.16 µM, first compound 0.0316 µM
[22] = second compound 3.16 µM, first compound 0.1 µM
[23] = second compound 3.16 µM, first compound 0.316 µM
[24] = second compound 3.16 µM, first compound 1 µM
[25] = second compound 10 µM, first compound 0.00316 µM
[26] = second compound 10 µM, first compound 0.01 µM
[27] = second compound 10 µM, first compound 0.0316 µM
[28] = second compound 10 µM, first compound 0.1 µM
[29] = second compound 10 µM, first compound 0.316 µM
[30] = second compound 10 µM, first compound 1 µM
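Also: spheroids exposed to compounds for 7 days.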
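For viability, T/C in this document: 100% = DMSO vehicle control viability.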

| Compound | IC50 (second compound 0.1 µM) | IC50 (second compound 0.316 µM) | IC50 (second compound 1 µM) | IC50 (second compound 3.16 µM) | IC50 (second compound 10 µM) | viability, T/C [3] | viability, T/C [4] | viability, T/C [5] | viability, T/C [6] | viability, T/C [9] | viability, T/C [10] | viability, T/C [11] | viability, T/C [12] | viability, T/C [15] | viability, T/C [16] | viability, T/C [17] | viability, T/C [18] | viability, T/C [21] | viability, T/C [22] | viability, T/C [23] | further results |
| --- | --- | --- | --- | --- | --- | --- | --- | --- | --- | --- | --- | --- | --- | --- | --- | --- | --- | --- | --- | --- | --- |
| CCN1CCN(Cc2ccc(Nc3ncc(F)c(-c4cc(F)c5nc(C)n(C(C)C)c5c4)n3)nc2)CC1 + CC1OCC2(CCN(c3cnc(Sc4ccnc(N)c4Cl)c(N)n3)CC2)C1N | > 1 µM | > 1 µM | > 1 µM | 0.842 µM | 0.0649 µM | 102% | 129% | 143% | 124% | 96.7% | 139% | 135% | 74.4% | 112% | 130% | 164% | 87.3% | 98.1% | 117% | 150% | viability, T/C [1]: 121%; viability, T/C [2]: 110%; viability, T/C [7]: 105%; viability, T/C [8]: 115%; viability, T/C [13]: 105%; viability, T/C [14]: 113%; viability, T/C [19]: 95.2%; viability, T/C [20]: 96.7%; viability, T/C [24]: 39.2%; viability, T/C [25]: 72%; viability, T/C [26]: 84.8%; viability, T/C [27]: 72.4%; viability, T/C [28]: 36%; viability, T/C [29]: 18.4%; viability, T/C [30]: 10.7% |
| O=C(c1cc(Cc2n[nH]c(=O)c3ccccc23)ccc1F)N1CCN(C(=O)C2CC2)CC1 + CNCc1ccccc1-c1csc(C(C)Nc2nc(C)nc3cc(OC)c(OC)cc23)c1 | > 10 µM | > 10 µM | > 10 µM | < 0.0316 µM | < 0.0316 µM | 102% | 90.9% | 81.1% | 88.5% | 90.8% | 87.2% | 92.6% | 87.7% | 112% | 90.3% | 87.8% | 91.1% | 9.5% | 28.8% | 40.8% | viability, T/C (second compound 0.1 µM, first compound 3.16 µM): 78.6%; viability, T/C (second compound 0.1 µM, first compound 10 µM): 61.2%; viability, T/C (second compound 0.316 µM, first compound 3.16 µM): 77.9%; viability, T/C (second compound 0.316 µM, first compound 10 µM): 97.6%; viability, T/C (second compound 1 µM, first compound 3.16 µM): 104%; viability, T/C (second compound 1 µM, first compound 10 µM): 111%; viability, T/C [24]: 15.5%; viability, T/C (second compound 3.16 µM, first compound 3.16 µM): 1.24%; viability, T/C (second compound 3.16 µM, first compound 10 µM): 2.36%; viability, T/C [27]: 0.23%; viability, T/C [28]: 0.27%; viability, T/C [29]: 0.26%; viability, T/C [30]: 0.23%; viability, T/C (second compound 10 µM, first compound 3.16 µM): 0.19%; viability, T/C (second compound 10 µM, first compound 10 µM): 0.27% |
| CCN1CCN(Cc2ccc(Nc3ncc(F)c(-c4cc(F)c5nc(C)n(C(C)C)c5c4)n3)nc2)CC1 + C=CC(=O)N1CCN(c2nc(=O)n(-c3c(C)ccnc3C(C)C)c3nc(-c4c(O)cccc4F)c(F)cc23)C(C)C1 | > 1 µM | > 1 µM | > 1 µM | > 1 µM | 0.743 µM | 101% | 96.3% | 143% | 119% | 112% | 118% | 153% | 111% | 102% | 114% | 163% | 83% | 126% | 121% | 155% | viability, T/C [1]: 90%; viability, T/C [2]: 107%; viability, T/C [7]: 80.8%; viability, T/C [8]: 85.9%; viability, T/C [13]: 87.3%; viability, T/C [14]: 84.8%; viability, T/C [19]: 89.5%; viability, T/C [20]: 92.4%; viability, T/C [24]: 76.8%; viability, T/C [25]: 104%; viability, T/C [26]: 102%; viability, T/C [27]: 100%; viability, T/C [28]: 143%; viability, T/C [29]: 117%; viability, T/C [30]: 27.9% |

From PubChem BioAssay AID1963865 (Molecular Pharmacology Branch, DTP, NCI, 2024)
